Article PMC12040169 (PLOS Biology, 2025)

Assay: in vitro
Settings: human, hela cells, % viability

Row | SMILES | viability at 28.5 h, 10 µM [%]
1 | CC(C)C(NS(=O)(=O)c1ccc(Oc2ccccc2Cl)cc1)C(=O)O (centres unmarked) [CBK267195] | 100
2 | Cc1nnc(SCC(=O)N2CCN(Cc3ccccc3)CC2)s1 [CBK267196] | 96
3 | O=C(O)c1ccccc1-c1ccccc1C(=O)NCCCO [CBK267197] | 92.3
4 | O=C(O)c1cccc(S(=O)(=O)N2CCC(C(=O)O)CC2)c1 [CBK267199] | 93.6
5 | O=C(Cn1nnc2ccccc21)NCCN1CCCC1 [CBK267200] | 106
6 | C=CCOc1c(Br)cc(CNc2ccc(C(=O)O)cc2)cc1OC [CBK267202] | 111
7 | CN1CCN(S(=O)(=O)c2ccc3c(c2)oc(=O)c2cc(S(=O)(=O)N4CCN(C)CC4)ccc23)CC1 [CBK267206] | 85
8 | Cc1ccc(-n2ncc(C(=O)N3CCc4ccccc4C3)c2NC(=O)c2ccco2)cc1C [CBK267207] | 100
9 | O=C(O)c1cccc(-c2ccc(/C=C\c3nc(O)c([N+](=O)[O-])c(=O)[nH]3)o2)c1 [CBK267209] | 96.9
10 | COC(=O)Cc1ccc(NC(=S)Nc2ccc(N3CCOCC3)cc2)cc1 [CBK267211] | 87.4
11 | CCNC(=S)NC(=Nc1nc(C)cc(C)n1)NCc1cccnc1 [CBK267212] | 97.2
12 | O=C(NCCO)NC(=S)c1ccccc1 [CBK267213] | 95.2
13 | O=C(Cn1c(-c2ccccn2)nc2ccccc21)NCCN1CCOCC1 [CBK267214] | 95
14 | c1ccc(CSc2nnc(COc3cccc4ccccc34)n2Cc2ccccc2)cc1 [CBK267215] | 116
15 | Fc1ccccc1Nc1nc(-c2ccncc2)cs1 [CBK267216] | 103
16 | Cc1cc(C)nc(NS(=O)(=O)c2ccc(Nc3ncnc(N)c3[N+](=O)[O-])cc2)n1 [CBK267217] | 96.6
17 | CCN1CCN(C(=O)CN(C)S(=O)(=O)c2ccc(Cl)cc2)CC1 [CBK267218] | 100
18 | N#Cc1ccsc1NC(=O)CSc1nnc[nH]1 [CBK267221] | 87.7
19 | COC(=O)c1c(NC(=O)CSc2nc[nH]n2)sc2c1CCCC2 [CBK267222] | 81.6
20 | O=C(O)COc1ccc(Br)cc1/C=C\c1nc(O)c([N+](=O)[O-])c(=O)[nH]1 [CBK267223] | 88.5
21 | CCOC(=O)c1c(NC(=O)CSc2nc[nH]n2)sc2c1CCC2 [CBK267225] | 94.5
22 | COc1ccc(N2C(=O)CC(NNC(=O)CNC(C)=O)C2=O)cc1 (centres unmarked) [CBK267228] | 87.7
23 | COc1ccc(-c2nc(NC(=O)CSc3n[nH]c(N)n3)ns2)cc1 [CBK267236] | 81.8

Row | SMILES | viability at 28.5 h, 10 µM [%]
24 | O=C(NCCO)c1nc(NCCO)c2ccccc2n1 [CBK267239] | 110
25 | N#CC1=C(N)N2C(=C(C#N)C13CCN(Cc1ccccc1)CC3)Nc1ccccc12 [CBK267241] | 108
26 | Cc1ccc(-c2csc3ncnc(SCc4csc(C)n4)c23)cc1 [CBK267244] | 91.7
27 | FC(F)(F)c1cccc(NC(=S)Nc2ccc(Cc3ccncc3)cc2)c1 [CBK267251] | 89.1
28 | Cc1cc(C)nc(N/C(=N\C(=S)Nc2cccc(Cl)c2C)NCc2cccnc2)n1 [CBK267254] | 93.5
29 | COc1cc(OC)nc(NC(=O)CN2CCN(c3ccc(F)cc3)CC2)n1 [CBK267259] | 96.5
30 | Cc1cc(/C=C(\C#N)c2nc3ccccc3[nH]2)c(C)n1-c1ccc(C(=O)O)cc1 [CBK267262] | 94.7
31 | c1cnc2cc(Oc3ccc4nccnc4c3)ccc2n1 [CBK267266] | 99.4
32 | Nc1ncnc(NCCCN2CCOCC2)c1[N+](=O)[O-] [CBK267267] | 91.8
33 | N#Cc1ccccc1CSc1nnc(-c2ccco2)n1-c1ccccc1 [CBK267270] | 91.8
34 | Cc1cccnc1Nc1nc(-c2ccccn2)cs1 [CBK267272] | 91.5
35 | O=C(CSc1nc[nH]n1)Nc1nsc(-c2ccc(Cl)cc2)n1 [CBK267273] | 110
36 | O=C(O)C1(NS(=O)(=O)c2ccc(F)c(Cl)c2)CCCCC1 [CBK267276] | 98.2
37 | NC(=O)CSc1nnc(COc2ccc(Br)cc2)n1-c1ccccc1 [CBK267277] | 101
38 | COc1ccc(S(=O)(=O)N(C)CC(=O)Nc2ccc(C(N)=O)cc2)cc1C [CBK267278] | 88
39 | COc1ccc(NC(=O)CC2NC(=O)NC2=O)cc1 (centres unmarked) [CBK267279] | 86.5
40 | O=C(CSc1nc2sc3c(c2c(=O)n1CCc1ccccc1)CCCC3)Nc1ccccc1 [CBK267281] | 112
41 | Cc1nnc2sc(-c3cccc(NC(=S)NC(=O)c4cc5ccccc5o4)c3)nn12 [CBK267282] | 87.4
42 | Nc1ncnc(NCCc2c[nH]c3ccccc23)c1[N+](=O)[O-] [CBK267283] | 29.6
43 | CN(C)CCCNc1nc(-c2cccc(Cl)c2)nc2ccccc12 [CBK267284C] | 81.5
44 | CCCCC12CN3CC(C)(CN(C1)C31C(=O)N(C)c3ccc(C)cc31)C2=O (centres unmarked) [CBK267286] | 96.1
45 | CCN(CC)CCNc1ncnc(N)c1[N+](=O)[O-] [CBK267287] | 82.8
46 | Cc1ccc(-c2noc(CN3CCN(Cc4ccccc4)CC3)n2)cc1 [CBK267288] | 91.3

Row | SMILES | viability at 28.5 h, 10 µM [%]
47 | COc1ccc(-c2nc(NC(=O)CSc3nnc(C)s3)ns2)cc1 [CBK267290] | 96.9
48 | O=C(NCc1ccccn1)c1ccc(CNS(=O)(=O)c2cccc(C(F)(F)F)c2)cc1 [CBK267291] | 87.7
49 | C=CCn1c(S)nnc1COc1cccc2ccccc12 [CBK267292] | 89.4
50 | Cc1ccc(Cl)c(NC(=O)NCCN2CCN(c3ccccc3[N+](=O)[O-])CC2)c1 [CBK267293] | 94.5
51 | Nc1ncnc(NCCC(c2ccccc2)c2ccccc2)c1[N+](=O)[O-] [CBK267294] | 90.5
52 | Cc1ccc(NC(=O)CSCc2nc3ccccc3[nH]2)cc1 [CBK267299] | 108
53 | Cc1cc(C)c2c(n1)OC(N1CCOCC1)(C(F)(F)F)CC2=O (centres unmarked) [CBK267301] | 79.2
54 | O=C(NCc1ccccc1)c1cnsn1 [CBK267302] | 90.8
55 | COc1cc(OC)c(NC(=O)CSc2ccccn2)cc1Cl [CBK267303] | 92.5
56 | Nc1nonc1C(=O)NCCNCc1cccs1 [CBK267305] | 95.2
57 | CC(C)Nc1ccc(S(=O)(=O)N(Cc2ccccc2)Cc2ccccc2)cn1 [CBK267307] | 84.6
58 | c1ccc(COC(c2ccccc2)c2nc3ccccc3n2Cc2ccccc2)cc1 (centres unmarked) [CBK267311] | 98.2
59 | Nc1ncnc(NCCCn2ccnc2)c1[N+](=O)[O-] [CBK267312] | 93.5
60 | O=C(CSc1ncn(-c2ccccc2)n1)Nc1ccc(F)c(Cl)c1 [CBK267313] | 94.4
61 | CCC(Oc1nc2ccccc2nc1-c1ccccc1NC(C)=O)C(=O)c1ccccc1 (centres unmarked) [CBK267315] | 94.4
62 | N#C/C(=C/c1cn(CCC(N)=O)c2ccccc12)c1ccc2c(c1)OCO2 [CBK267319] | 90.2
63 | CN(C)S(=O)(=O)c1ccc(NC(=O)c2ccc(-c3ccccc3)cc2)cc1 [CBK267322] | 104
64 | Nc1nc(SCC(=O)N2CCC(c3noc4ccc(F)cc34)CC2)n[nH]1 [CBK267326] | 91.4
65 | Cc1ccc(C(=O)NCCN2CCOCC2)cc1S(=O)(=O)N1CCCCC1 [CBK267329] | 86.2
66 | CCOC(=O)c1ccc(NC(=O)C(C)Sc2nc3ccccc3[nH]2)cc1 (centres unmarked) [CBK267330] | 91.8
67 | O=C(CC1NC(=O)NC1=O)Nc1ccccc1 (centres unmarked) [CBK267331] | 90.4
68 | Cc1cccc(NC(=O)c2cc(NC(=O)C3CCCCC3C(=O)O)ccc2N2CCCCC2)c1 (centres unmarked) [CBK267332] | 97.3
69 | COc1ccc(S(=O)(=O)N(C)CC(=O)Nc2ccc(S(N)(=O)=O)cc2)cc1C [CBK267333] | 93.7

Row | SMILES | viability at 28.5 h, 10 µM [%]
70 | Cc1ccc(C(=O)O)cc1S(=O)(=O)N(CCO)CCO [CBK267335] | 102
71 | CCOc1cc(/C=C/c2nc(O)c([N+](=O)[O-])c(=O)[nH]2)ccc1OCC(N)=O [CBK267337] | 96
72 | CC(=O)Nc1ccc(S(=O)(=O)N2CCN(c3cc4c(cc3[N+](=O)[O-])n(C)c(=O)n4C)CC2)cc1 [CBK267338] | 91.9
73 | O=C(Cn1c(C(F)(F)F)nc2ccccc21)NCCN1CCOCC1 [CBK267339] | 100
74 | O=[N+]([O-])c1cc(-c2nnc(-c3ccccc3)o2)ccc1-n1c(-c2ccccc2)nnc1-c1ccccc1 [CBK267341] | 99.2
75 | O=C(CN1C(=O)CSc2ccccc21)Nc1ccccc1C(=O)N1CCOCC1 [CBK267343] | 104
76 | Nc1ncnc(Nc2ccc(Nc3ccccc3)cc2)c1[N+](=O)[O-] [CBK267347] | 88.9
77 | N=C(N)Nc1nc(-c2ccccc2)c2cc(F)ccc2n1 [CBK267350] | 82.7
78 | O=C1CC(C(=O)c2ccccc2)NC(N2CCOCC2)=N1 (centres unmarked) [CBK267352] | 105
79 | O=C(CC1NC(=O)NC1=O)Nc1ccc(C(=O)O)cc1 (centres unmarked) [CBK267355] | 99.1
80 | CC(C)(C)c1ccc(NC(=O)C(=O)NCCCn2ccnc2)cc1 [CBK267358] | 108
81 | Cc1nc(N)sc1-c1nnc(SCC(=O)Nc2ccccc2C(F)(F)F)n1C [CBK267359] | 99.5
82 | O=C(CSc1nc[nH]n1)c1ccc2c(c1)OCCO2 [CBK267360] | 101
83 | O=C(COc1ccc2ccccc2c1Br)NCc1ccccn1 [CBK267361] | 84.1
84 | CCC(C)Oc1ccccc1OCCN1C(=O)NC(C)(C)C1=O (centres unmarked) [CBK267362] | 98.5
85 | Cc1ccc(/C(N)=N/OC(=O)CN(C)S(=O)(=O)c2ccc3ccccc3c2)cc1 [CBK267363] | 104
86 | C=CCn1c(SCc2nnc(-c3ccccc3)o2)nnc1C(O)c1ccccc1 (centres unmarked) [CBK267368] | 110
87 | Cn1c(SCC(=O)n2c3c(c4ccccc42)CCCC3)nnc1-c1ccco1 [CBK267370] | 99.2
88 | CC(C)c1ccc(NC(=O)CSc2nnc(Cc3cccc4ccccc34)o2)cc1 [CBK267371] | 88.7
89 | CC(=O)Nc1ccccc1NC(=O)CN(C)S(=O)(=O)c1ccc(Cl)cc1 [CBK267373] | 93.2
